Laboratory results taken from ChEMBL document CHEMBL1152828, “Rare dipeptide and urea derivatives from roots of Moringa oleifera as potential anti-inflammatory and antinociceptive agents” (Eur J Med Chem, 2009).
The source made the active and inactive calls. The calls are words filed in the database; no cut-off is given here.

How the values were obtained:
[1] = tested on: Blood; test: Inhibition of LPS-induced TNFalpha production in rat whole blood at 12.5 to 50 uM by ELISA; type: functional, tissue-based
[2] = tested on: Blood; test: Inhibition of LPS-induced IL2 production in rat whole blood at 12.5 to 50 uM by ELISA; type: functional, tissue-based
[3] = tested on: Mus musculus; test: Analgesic activity in intracerebrally dosed mouse assessed as increase in time course of latency for thermal stimulation by hotplate test; type: functional, organism-based
[4] = tested on: Blood; test: Inhibition of LPS-induced IL6 production in rat whole blood at 12.5 to 50 uM by ELISA; type: functional, tissue-based
[5] = molecular target: Transient receptor potential cation channel subfamily V member 1 (Rattus norvegicus, UniProt O35433); test: Antagonist activity at TRPV1 in rat DRG neuron assessed as inhibition of calcium uptake; type: functional
Transient receptor potential cation channel subfamily V member 1, sequence (O35433 whole entry): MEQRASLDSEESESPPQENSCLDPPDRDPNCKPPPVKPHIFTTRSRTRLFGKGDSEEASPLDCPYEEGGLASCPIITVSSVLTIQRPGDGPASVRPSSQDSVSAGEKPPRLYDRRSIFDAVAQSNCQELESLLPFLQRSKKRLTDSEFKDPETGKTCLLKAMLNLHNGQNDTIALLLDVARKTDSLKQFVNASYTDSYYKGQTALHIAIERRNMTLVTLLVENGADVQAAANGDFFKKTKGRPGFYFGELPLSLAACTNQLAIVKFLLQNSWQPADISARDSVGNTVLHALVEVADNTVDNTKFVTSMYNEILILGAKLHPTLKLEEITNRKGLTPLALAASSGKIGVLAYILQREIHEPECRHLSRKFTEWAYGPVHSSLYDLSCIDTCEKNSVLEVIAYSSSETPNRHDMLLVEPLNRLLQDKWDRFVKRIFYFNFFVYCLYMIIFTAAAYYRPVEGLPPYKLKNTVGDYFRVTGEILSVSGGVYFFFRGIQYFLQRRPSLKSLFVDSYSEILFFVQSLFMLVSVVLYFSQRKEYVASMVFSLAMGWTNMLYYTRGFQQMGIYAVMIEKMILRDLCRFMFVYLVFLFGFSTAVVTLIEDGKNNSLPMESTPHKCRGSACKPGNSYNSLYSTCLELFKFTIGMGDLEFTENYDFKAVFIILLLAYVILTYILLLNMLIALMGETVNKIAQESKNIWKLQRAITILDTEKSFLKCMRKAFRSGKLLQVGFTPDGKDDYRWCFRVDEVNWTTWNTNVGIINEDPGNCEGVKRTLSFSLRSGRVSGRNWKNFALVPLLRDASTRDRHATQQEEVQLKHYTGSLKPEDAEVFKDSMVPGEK

SMILES | Activity [1] | Activity [2] | Activity [3] | Activity [4] | IC50 [5]
CC(=O)OCC(Cc1ccccc1)NC(=O)C(Cc1ccccc1)NC(=O)c1ccccc1 (configuration not stated) | Active | Active | Dose-dependent effect | Active | 
O=C(NCc1ccccc1)NCc1ccccc1 |  | Active | Dose-dependent effect |  | 10 nM
